Reference: patent publication US20220288004A1, “TREATMENT AND PREVENTION OF AGING RELATED-DISEASE AND/OR AGING BY THE INHIBITION OF SPHINGOLIPIDS” (ECOLE POLYTECHNIQUE FEDERALE DE LAUSANNE (EPFL), priority 2019, published 2022)
Entries after “also recorded” stand apart in the source; their conditions may differ.

Key:
aged C57Bl/6JRj mice [1] = test: Novel object recognition in aged mice; type: in vivo, mouse
Description: Novel Object Recognition. The novel object recognition task is used to assess recognition memory of mice. It is based on the natural tendency of rodents to explore a novel object by comparison to a familiar one. A habituation phase is realized to familiarize animals to the arena context. 24 hours later, during the acquisition phase (learning phase), two identical objects are placed in the arena and presented to the mouse. During the retention phase (3 hours following the acquisition phase), one of the two familiar objects is replaced by a novel one. Measures of duration and number of exploration for each object are realized, during both acquisition and retention phases, and a Recognition Index is calculated.

aged C57Bl/6JRj mice [2] = test: Muscle function tests (treadmill, aerobic capacity, grip strength, rotarod, crossbar) in aged mice; type: in vivo, mouse; conditions: myriocin 5 months vs DMSO
Description: To examine whether a causal relationship could underlie the correlation between SphPC1 and muscle mass and function, it was tested whether inhibition of sphingolipid de novo biosynthesis pathway could protect against age-related muscle dysfunction. Aged (18-month-old) C57Bl/6JRj mice were treated for 5 months on chow diet with myriocin, a specific inhibitor of SPT, the first and rate-limiting enzyme of the sphingolipid de novo synthesis pathway, and whose expression in skeletal muscle was negatively correlated with muscular fitness in BXDs.
Animals. Young (2-month-old) and aged (18-month-old) C57Bl/6JRj mice were purchased from Janvier Labs. EchoMRI measuring the fat and lean body mass, were measured before and after the treatment. The dose of myriocin was 0.4 mg/kg/3 times a week. Myriocin (Enzo Life Sciences, Farmingdale, N.Y.) was first dissolved in DMSO which was then mixed with PBS so that each mouse received 1.5 μL DMSO per injection. Animals were fed on a standard chow diet. All animals were housed in micro-isolator cages in a room illuminated from 7:00 AM to 7:00 PM with ad libitum access to diet and water. All the animal experiments are authorized by animal license 2890.1 and 3341 in Canton of Vaud, Switzerland.
Endurance running test. The exercise regimen on a treadmill commenced at a speed of 9 cm/s. As the mice were aged, an inclination of 0 degrees was used. Mice were considered to be exhausted, and removed from the treadmill if they received 7 or more shocks (0.2 mA) per minute for two consecutive minutes. The distance traveled and time before exhaustion were registered as maximal running distance and time.
Grip strength. Muscle strength was assessed by grip strength test. The grip strength of each mouse was measured on a pulldown grid assembly connected to a grip strength meter (Columbus Instruments). The mouse was drawn along a straight line parallel to the grip, providing peak force. The experiment was repeated three times, and the highest value was included in the analysis.
Rotarod test. The rotarod test measures muscle strength, coordination, and endurance. Mice were left undisturbed in the room for 30 min. The speed of the rotating cylinder (rotarod) increased from 0 to 40 rpm in 5 min. Each mouse had 3 trials per day for 3 consecutive days. The latency and speed the mouse reached it passive rotation or fall from the rotor was recorded, and the latency and speed of the best trial of the second day is presented.
Crossbar test. Crossbar test assesses active balance through the ability to balance while walking along an elevated beam to reach a dark end side where they are able hide. Since all the mice were easily able to cross a squared (3 cm) beam, and a circular beam of diameter 1.5 cm was too difficult to them, the latency was recorded to cross a circular beam of 3 cm. The mice were trained for one day before the actual trial was recorded, and the average of the latency of three trials per mouse is presented.

`CCCCCCC(=O)CCCCCCC=CCC(O)C(O)C(N)(CO)C(=O)O` (centres unmarked) [myriocin, 2-Amino-3,4-dihydroxy-2-(hydroxymethyl)-14-oxoicos-6-enoic acid] was tested. Which recognition index (aged C57Bl/6JRj mice [1]; myriocin 5 months vs DMSO) did it give?
The recognition index was “higher”.

What about the “time exploring novel object relative to familiar object” value (aged C57Bl/6JRj mice [1]; myriocin 5 months vs DMSO treated counterparts) of the same compound?
The value was “more”.

And the “aerobic capacity (maximal oxygen consumption)” value (aged C57Bl/6JRj mice [2])?
The value was “improved; also recorded: increased”.

What about the “crossing of a beam” value (aged C57Bl/6JRj mice [2]) of the same compound?
Its value is “faster crossing”.

What about the grip strength (aged C57Bl/6JRj mice [2]) of the same compound?
Its grip strength is “improved; also recorded: increased”.

And the “performance in the rotarod test” value (aged C57Bl/6JRj mice [2])?
The value was “improved performance”.

What about the “running distance and time on a treadmill” value (aged C57Bl/6JRj mice [2]) of the same compound?
Its value is “increased; also recorded: improved performance”.

And the “speed reached before falling off the rotarod” value (aged C57Bl/6JRj mice [2])?
The value was “higher speed”.
